Measured values as given in patent publication US8232317B2, “Method for increasing hair growth” (E-L Management Corp., priority 2003, dated 2012).
Where “and” joins values, the source holds several entries; their conditions need not be identical. Equal entries are not always repeated.

Legend:
[1] = test system: Normal Human Dermal Papilla Cells; assay: DNA synthesis ([H]3-thymidine incorporation) in dermal papilla cells; assay type: cell-based; details: for [H] counts to denote incorporated Thymidine (relative DNA synthesis): individual replicates
Method: Methods: Normal Human Dermal Papilla Cells were obtained from Cell Applications Incorporated (San Diego, Calif.) which isolates the dermal papilla cells from hair plugs. Papilla cells were grown to 70% in 24 well plates. […] These treatments were carried out for 24 hours before [H]^3-Thymidine label (1 μCi/ml) was added in each well. DNA synthesis, an indicator of cell proliferation, was measured 24 hours later as a function of [H]^3-Thymidine incorporation.

[2] = test system: hair plugs; assay: Hair growth in hair plugs exposed to creatine; assay type: cell-based; details: creatine 1 mM; for Actual length of hair plugs / Hair growth normalized to length at day 0: individual plugs; for Average hair growth: n=6
Method: Methods: Hair plugs were obtained from East Wood Medical Hair Transplant Surgery (Garden City, N.Y.). These hair plugs were equilibrated in hair plug media as described in the literature (DMEM, 10% FBS, 1% PS, 25 mg insulin, 25 μg fungizone). These hair plugs were measured under the microscope one the first day of arrival and treated with creatine at 1 mM (n=6 for control and creatine group respectively). These hair plugs were then kept in the incubator at 37° C. in 5% CO2. On day 3, 7, & 10, re-treatments were made as well as measurements.

Nc1ncnc2c1ncn2[C@@H]1O[C@H](COP(=O)(O)O)[C@@H](O)[C@H]1O [AMP] was tested, and the “% increase compared to control (thymidine uptake / DNA synthesis)” value ([1]; 0.25 mM) was 1493%, the “% increase compared to control (thymidine uptake / DNA synthesis)” value ([1]; 0.5 mM) was 1930% and the “% increase compared to control (thymidine uptake / DNA synthesis)” value ([1]; 1 mM) was 1449%.

For Nc1ncnc2c1ncn2[C@@H]1O[C@H](COP(=O)(O)OP(=O)(O)OP(=O)(O)O)[C@@H](O)[C@H]1O [ATP], the “% increase compared to control (thymidine uptake / DNA synthesis)” value ([1]; 0.25 mM) was 1411% and the “% increase compared to control (thymidine uptake / DNA synthesis)” value ([1]; 0.5 mM) was 1201%.

CN(CC(=O)O)C(=N)N [Creatine, creatine] was tested, and the “% increase compared to control (thymidine uptake / DNA synthesis)” value ([1]; 0.25 mM) was 35.66%, the Average thymidine uptake ([1]; 0.25 mM) was 25229.47 and the “[H] counts to denote incorporated Thymidine (relative DNA synthesis)” value (shortened to “[H] counts … (relative DNA synthesis)”) ([1]; 0.25 mM) was 27441.5 counts and 24848.2 counts and 23398.7 counts. For the same compound, the “% increase compared to control (thymidine uptake / DNA synthesis)” value ([1]; 0.25 mM, listed as creatine) was 36%, the “% increase compared to control (thymidine uptake / DNA synthesis)” value ([1]; 0.5 mM) was 24.78% and the Average thymidine uptake ([1]; 0.5 mM) was 23206.37. For the same compound, the “[H] counts … (relative DNA synthesis)” value ([1]; 0.5 mM) was 21850.6 counts and 23029.9 counts and 24738.6 counts, the “% increase compared to control (thymidine uptake / DNA synthesis)” value ([1]; 0.5 mM, listed as creatine) was 25% and the “% increase compared to control (thymidine uptake / DNA synthesis)” value ([1]; 1 mM) was 5.697%. For the same compound, the Average thymidine uptake ([1]; 1 mM) was 19657.6, the “[H] counts … (relative DNA synthesis)” value ([1]; 1 mM) was 20190.6 counts and 18789.8 counts and 19992.4 counts and the “% increase compared to control (thymidine uptake / DNA synthesis)” value ([1]; 1 mM, listed as creatine) was 6%. For the same compound, the “Actual length of hair plugs” value ([2]; Day 0 (baseline)) was 3.8 mm and 6.3 mm and 8.1 mm and 8.3 mm and 8.2 mm and 7.6 mm, the Average hair growth ([2]; Day 0) was 0 mm and the “% increase compared to untreated (hair growth)” value (“% increase compared to untreated” for short) ([2]; Day 3) was 96.6%. The “Actual length of hair plugs” value ([2]; Day 3) was 4.7 mm and 7.1 mm and 9.5 mm and 9.1 mm (2×) and 8.5 mm, the “Hair growth normalized to length at day 0” value (“Hair growth normalized” for short) ([2]; Day 3) was 0.9 mm (3×) and 0.8 mm (2×) and 1.4 mm and the Average hair growth ([2]; Day 3) was 0.95 mm. The “% increase compared to untreated” value ([2]; Day 7) was 79.5%, the “Actual length of hair plugs” value ([2]; Day 7) was 5 mm and 7 mm and 9.6 mm (2×) and 9.8 mm and 9.2 mm and the “Hair growth normalized” value ([2]; Day 7) was 1.2 mm and 0.7 mm and 1.5 mm and 1.3 mm and 1.6 mm (2×). For the same compound, the Average hair growth ([2]; Day 7) was 1.32 mm and 1.317 mm, the “% increase compared to untreated” value ([2]; Day 10) was 75.5% and the “Actual length of hair plugs” value ([2]; Day 10) was 5.5 mm and 7 mm and 9.7 mm (2×) and 9.8 mm and 9.2 mm. For the same compound, the “Hair growth normalized” value ([2]; Day 10) was 1.7 mm and 0.7 mm and 1.6 mm (3×) and 1.4 mm, the Average hair growth ([2]; Day 10) was 1.43 mm and 1.433 mm and the “Increase in hair growth compared to the untreated plugs” value ([2]; over 10 days) was “two fold”.

In the case of O=C(O)CC(=O)C(=O)O [Oxaloacetate, oxaloacetic acid (oxaloacetate)], the “% increase compared to control (thymidine uptake / DNA synthesis)” value ([1]; 0.25 mM) is reported as 22%, the Average thymidine uptake ([1]; 0.25 mM) is reported as 22609.37 and the “[H] counts … (relative DNA synthesis)” value ([1]; 0.25 mM) is reported as 26907.8 counts and 21897.4 counts and 19022.9 counts. The “% increase compared to control (thymidine uptake / DNA synthesis)” value ([1]; 0.25 mM, listed as Oxal) was 21.57%, the “% increase compared to control (thymidine uptake / DNA synthesis)” value ([1]; 0.5 mM) was 33% and the Average thymidine uptake ([1]; 0.5 mM) was 24782.97. For the same compound, the “[H] counts … (relative DNA synthesis)” value ([1]; 0.5 mM) was 24483.7 counts and 21467.8 counts and 28397.4 counts, the “% increase compared to control (thymidine uptake / DNA synthesis)” value ([1]; 0.5 mM, listed as Oxal) was 33.26% and the “% increase compared to control (thymidine uptake / DNA synthesis)” value ([1]; 1 mM) was 38%. The Average thymidine uptake ([1]; 1 mM) was 25586.67, the “[H] counts … (relative DNA synthesis)” value ([1]; 1 mM) was 25537.3 counts and 25092.4 counts and 26130.3 counts and the “% increase compared to control (thymidine uptake / DNA synthesis)” value ([1]; 1 mM, listed as Oxal) was 37.58%.
